Molecules are shown by their SMILES.

Broadly, the IC50 is the concentration that gives 50% inhibition. Low readings indicate greater potency, high ones weaker potency.

The target of the test is T1, Endothelial lipase (Homo sapiens, UniProt Q9Y5X9).
T1 sequence (Q9Y5X9 whole entry): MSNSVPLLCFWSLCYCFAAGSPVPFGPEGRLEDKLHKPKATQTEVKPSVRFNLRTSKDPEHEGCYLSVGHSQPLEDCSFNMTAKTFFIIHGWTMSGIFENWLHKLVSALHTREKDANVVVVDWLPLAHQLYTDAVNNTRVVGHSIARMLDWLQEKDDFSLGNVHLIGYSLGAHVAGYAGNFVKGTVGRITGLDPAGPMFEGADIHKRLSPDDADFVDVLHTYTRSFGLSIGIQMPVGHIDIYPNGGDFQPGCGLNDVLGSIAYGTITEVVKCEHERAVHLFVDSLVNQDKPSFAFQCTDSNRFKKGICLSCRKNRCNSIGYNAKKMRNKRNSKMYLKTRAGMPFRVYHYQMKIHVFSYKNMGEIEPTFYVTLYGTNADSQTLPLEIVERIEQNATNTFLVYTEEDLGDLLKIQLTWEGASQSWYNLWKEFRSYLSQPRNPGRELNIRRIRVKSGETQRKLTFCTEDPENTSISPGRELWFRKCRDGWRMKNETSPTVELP
The experiment in a line: Enzyme Assay: The enzymatic assay was measured using white, opaque 96-well half area plates. Each well contained 60 uL of assay buffer (50 mM HEPES pH 8.0, 50 mM NaCl and 1 mM CaCl2) and 2 ul of a DMSO solution containing compound of interest. Conditioned media obtained from HT-1080 cells, which were transformed by RAGE technology (Athersys) to overexpress endogenous EL, was added and the reaction was allowed to incubate for 20 min at 37° C. with gentle agitation. The reaction was started by the addition of 20 uL of a 1:4 dilution of vesicles. The final total reaction volume was 100 uL. The reaction rates were measured on a Gemini plate reader with an excitation wavelength of 488 nm and a emission of 530 nm. Readings were taken every 20 seconds for 10 min with agitation between each reading. In kind it is cell-based.
For `CC1C(C(=O)NCCCc2ccc(Cl)c(Cl)c2)=C(O)C(=O)N1CCc1ccc(F)cc1` (stereo not drawn), the IC50 was determined as 0.486 µM. Regarding `O=C(NCCCc1ccc(Cl)c(Cl)c1)C1=C(O)C(=O)N(Cc2ccccc2C(=O)O)C1`, 0.488 µM corresponded to half-maximal inhibition (IC50). In the case of `CN1CC(C(=O)NCCCc2ccccc2C(F)(F)F)=C(O)C1=O` it was 0.436 µM.

The values are drawn from ChEMBL document CHEMBL3886502, “Pyrrolinone carboxamide compounds useful as endothelial lipase inhibitors” (2016).
